Data from patent US4170656A, “Compositions containing cis-2-benzoyl-3-hydroxy-crotononitrile used to treat inflammation and joint deterioration” (priority 1978, dated 1979).

Assays:
[1] = Adjuvant induced arthritis in rats (Freund's adjuvant); type: in vivo, Royal Hart, Wistar strain rats; settings: for Dead/Treated At 21 Days: days 0-13
Procedure: Groups of three Royal Hart, Wistar strain rats weighing 200±10 grams each were injected intradermally in the right hind paw with Freund's adjuvant (dried human tubercle bacilli in a mineral oil vehicle) at a dose of 2 mg./kg. of body weight. Test compound was administered orally in a 1.5% starch vehicle at various doses once daily on days 0 through 13 post challenge. Control rats were treated in a similar manner, but given only starch vehicle. On the 14th and 21st day post challenge the diameter of the injected paw (primary lesion) was measured by micrometer caliper. The volume of inflamed paws were estimated from these measurements and the results are expressed as percent inhibition of swelling as compared to controls. At the same time, the other inflamed sites, such as ears, paws and tail (seconday lesions) were observed and each rat was graded as to degree of inflammation and swelling present. The grading is based on a scale of 0 to 24, where 0 represents a complete absence of induced arthritic nodules and 24 represents the maximum degree of inflammation. The mean grade for each treated group is calculated and the effects of each compound are expressed as percent inhibition of the control grade. Table I records the results of tests conducted with a typical compound of the present invention and known anti-inflammatory agents.

[2] = Carrageenin induced paw edema in rats (acute anti-inflammatory activity); type: in vivo, Royal Hart, Wistar strain rats; settings: 250 mg./kg. by gavage; 5 hours after drug (4 hours after carrageenin); ratio greater than 1.41 is active
Procedure: In determining the acute anti-inflammatory activity of the cis-2-benzoyl-3-hydroxy-2-alkenonitriles of the present invention, Royal Hart, Wistar strain rats, ranging in weight from 80 to 90 grams were used. The rats were fasted overnight prior to dosing but had free access to water. The test compounds were administered in aqueous suspension, by gavage, in a volume of 1.7 ml. per 50 grams of rat [corresponds to hydration volume used by Winter, et al., Proc. Soc. […] The phlogistic agent used was carrageenin prepared as a sterile 1% suspension in 0.9% aqueous sodium chloride for routine testing. A volume of 0.05 ml. was injected through a 26 gauge needle into the plantar tissue of the right hind paw. Measurements were made 5 hours after drug administration (4 hours after carrageenin challenge). Volumes of both the normal and carrageenin inflammed feet were determined. The difference between the two measurements is considered to be the increased edema due to the carrageenin administration.

[3] = Ultraviolet induced erythema in guinea pigs; type: in vivo, Albino guinea pigs; parameters: key: sum of 3 sites, each 0 = none, 0.5 = faint, 1.0 = distinct; max 3.0; settings: maximum 3.0
Procedure: Albino guinea pigs were depilitated on their flanks, the evening before testing, with a standard mixture of barium sulfide and gum acacia. On the morning of the test, groups of four guinea pigs were dosed by gavage one hour prior (-1 hour) to ultraviolet exposure. At 0 hour they were restrained in a plastic container which allows exposure of 3 circular spots. They were then exposed to ultraviolet irradiation from a "Hanovia" Kromayer lamp, model 10, for 60 seconds. At one and four hours, the degree of erythema for each of the three sites was assessed according to the following scoring system: 0= no erythema, 0.5=incomplete circle or faint erythema, and 1.0=complete circle of distinct erythema. Thus, the maximum score for each animal was 3.0.

CC(=O)Oc1ccccc1C(=O)O [Aspirin]
% Inhibition of Control Grade (secondary lesion) ([1]; oral 50 mg./kg., Day 14): 12%
% Inhibition of Swelling (primary lesion) ([1]; oral 50 mg./kg., Day 14): 23%
Mean Weight Gain ([1]; oral 50 mg./kg., Day 14): 56 grams
% Inhibition of Control Grade (secondary lesion) ([1]; oral 50 mg./kg., Day 21): 9%
% Inhibition of Swelling (primary lesion) ([1]; oral 50 mg./kg., Day 21): 3%
Mean Weight Gain ([1]; oral 50 mg./kg., Day 21): 44 grams
Dead/Treated At 21 Days ([1]; oral 50 mg./kg.): 2/21
% Inhibition of Control Grade (secondary lesion) ([1]; oral 100 mg./kg., Day 14): 19%
% Inhibition of Swelling (primary lesion) ([1]; oral 100 mg./kg., Day 14): 36%
Mean Weight Gain ([1]; oral 100 mg./kg., Day 14): 48 grams
% Inhibition of Control Grade (secondary lesion) ([1]; oral 100 mg./kg., Day 21): 8%
% Inhibition of Swelling (primary lesion) ([1]; oral 100 mg./kg., Day 21): 13%
Mean Weight Gain ([1]; oral 100 mg./kg., Day 21): 53 grams
Dead/Treated At 21 Days ([1]; oral 100 mg./kg.): 18/63
% Inhibition of Control Grade (secondary lesion) ([1]; oral 200 mg./kg., Day 14): 26%
% Inhibition of Swelling (primary lesion) ([1]; oral 200 mg./kg., Day 14): 48%
Mean Weight Gain ([1]; oral 200 mg./kg., Day 14): 40 grams
% Inhibition of Control Grade (secondary lesion) ([1]; oral 200 mg./kg., Day 21): 17%
% Inhibition of Swelling (primary lesion) ([1]; oral 200 mg./kg., Day 21): 27%
Mean Weight Gain ([1]; oral 200 mg./kg., Day 21): 44 grams
Dead/Treated At 21 Days ([1]; oral 200 mg./kg.): 10/66
% Inhibition of Control Grade (secondary lesion) ([1]; oral 400 mg./kg., Day 14): 58%
% Inhibition of Swelling (primary lesion) ([1]; oral 400 mg./kg., Day 14): 73%
Mean Weight Gain ([1]; oral 400 mg./kg., Day 14): 41 grams
% Inhibition of Control Grade (secondary lesion) ([1]; oral 400 mg./kg., Day 21): 45%
% Inhibition of Swelling (primary lesion) ([1]; oral 400 mg./kg., Day 21): 48%
Mean Weight Gain ([1]; oral 400 mg./kg., Day 21): 55 grams
Dead/Treated At 21 Days ([1]; oral 400 mg./kg.): 18/57
C/T Edema Ratio [2]: 2.8
Erythema Score (avg.) ([3]; oral 31.3 mg./kg., 1 hour): 1.2
Erythema Score (avg.) ([3]; oral 31.3 mg./kg., 4 hours): 2.3
Erythema Score (avg.) ([3]; oral 62.5 mg./kg., 1 hour): 0.8
Erythema Score (avg.) ([3]; oral 62.5 mg./kg., 4 hours): 2.0
Erythema Score (avg.) ([3]; oral 125 mg./kg., 1 hour): 0.1
Erythema Score (avg.) ([3]; oral 125 mg./kg., 4 hours): 2.0
Erythema Score (avg.) ([3]; oral 250 mg./kg., 1 hour): 0.1
Erythema Score (avg.) ([3]; oral 250 mg./kg., 4 hours): 1.2

C/C(O)=C(\C#N)C(=O)c1ccccc1 [Cis-2-benzoyl-3-hydroxy-crotononitrile, Cis-2-benzoyl-3-hydroxycrotononitrile]
% Inhibition of Control Grade (secondary lesion) ([1]; oral 25 mg./kg., Day 14): 10%
% Inhibition of Swelling (primary lesion) ([1]; oral 25 mg./kg., Day 14): 26%
Mean Weight Gain ([1]; oral 25 mg./kg., Day 14): 37 grams
% Inhibition of Control Grade (secondary lesion) ([1]; oral 25 mg./kg., Day 21): 1%
% Inhibition of Swelling (primary lesion) ([1]; oral 25 mg./kg., Day 21): 14%
Mean Weight Gain ([1]; oral 25 mg./kg., Day 21): 28 grams
Dead/Treated At 21 Days ([1]; oral 25 mg./kg.): 3/18
% Inhibition of Control Grade (secondary lesion) ([1]; oral 50 mg./kg., Day 14): 14%
% Inhibition of Swelling (primary lesion) ([1]; oral 50 mg./kg., Day 14): 64%
Mean Weight Gain ([1]; oral 50 mg./kg., Day 14): 51 grams
% Inhibition of Control Grade (secondary lesion) ([1]; oral 50 mg./kg., Day 21): 17%
% Inhibition of Swelling (primary lesion) ([1]; oral 50 mg./kg., Day 21): 54%
Mean Weight Gain ([1]; oral 50 mg./kg., Day 21): 45 grams
Dead/Treated At 21 Days ([1]; oral 50 mg./kg.): 3/36
% Inhibition of Control Grade (secondary lesion) ([1]; oral 100 mg./kg., Day 14): 38%
% Inhibition of Swelling (primary lesion) ([1]; oral 100 mg./kg., Day 14): 68%
Mean Weight Gain ([1]; oral 100 mg./kg., Day 14): 43 grams
% Inhibition of Control Grade (secondary lesion) ([1]; oral 100 mg./kg., Day 21): 46%
% Inhibition of Swelling (primary lesion) ([1]; oral 100 mg./kg., Day 21): 53%
Mean Weight Gain ([1]; oral 100 mg./kg., Day 21): 41 grams
Dead/Treated At 21 Days ([1]; oral 100 mg./kg.): 5/18
progression of the arthritis and associated joint deterioration ([1]; oral, days 0 through 13): appears to suppress the progression of the arthritis and associated joint deterioration
C/T Edema Ratio [2]: 2.3
Erythema Score (avg.) ([3]; oral 15.6 mg./kg., 1 hour): 2.3
Erythema Score (avg.) ([3]; oral 15.6 mg./kg., 4 hours): 2.5
Erythema Score (avg.) ([3]; oral 31.3 mg./kg., 1 hour): 0.8
Erythema Score (avg.) ([3]; oral 31.3 mg./kg., 4 hours): 2.3
Erythema Score (avg.) ([3]; oral 62.5 mg./kg., 1 hour): 0.8
Erythema Score (avg.) ([3]; oral 62.5 mg./kg., 4 hours): 2.4
Erythema Score (avg.) ([3]; oral 125 mg./kg., 1 hour): 0
Erythema Score (avg.) ([3]; oral 125 mg./kg., 4 hours): 1.3

CCCCC1C(=O)N(c2ccccc2)N(c2ccccc2)C1=O [Phenylbutazone]
% Inhibition of Control Grade (secondary lesion) ([1]; oral 18.8 mg./kg., Day 14): 4%
% Inhibition of Swelling (primary lesion) ([1]; oral 18.8 mg./kg., Day 14): 31%
Mean Weight Gain ([1]; oral 18.8 mg./kg., Day 14): 50 grams
% Inhibition of Control Grade (secondary lesion) ([1]; oral 18.8 mg./kg., Day 21): 8%
% Inhibition of Swelling (primary lesion) ([1]; oral 18.8 mg./kg., Day 21): 7%
Mean Weight Gain ([1]; oral 18.8 mg./kg., Day 21): 45 grams
Dead/Treated At 21 Days ([1]; oral 18.8 mg./kg.): 2/21
% Inhibition of Control Grade (secondary lesion) ([1]; oral 37.5 mg./kg., Day 14): 18%
% Inhibition of Swelling (primary lesion) ([1]; oral 37.5 mg./kg., Day 14): 56%
Mean Weight Gain ([1]; oral 37.5 mg./kg., Day 14): 53 grams
% Inhibition of Control Grade (secondary lesion) ([1]; oral 37.5 mg./kg., Day 21): 13%
% Inhibition of Swelling (primary lesion) ([1]; oral 37.5 mg./kg., Day 21): 14%
Mean Weight Gain ([1]; oral 37.5 mg./kg., Day 21): 53 grams
Dead/Treated At 21 Days ([1]; oral 37.5 mg./kg.): 5/39
% Inhibition of Control Grade (secondary lesion) ([1]; oral 75 mg./kg., Day 14): 27%
% Inhibition of Swelling (primary lesion) ([1]; oral 75 mg./kg., Day 14): 62%
Mean Weight Gain ([1]; oral 75 mg./kg., Day 14): 51 grams
% Inhibition of Control Grade (secondary lesion) ([1]; oral 75 mg./kg., Day 21): 15%
% Inhibition of Swelling (primary lesion) ([1]; oral 75 mg./kg., Day 21): 28%
Mean Weight Gain ([1]; oral 75 mg./kg., Day 21): 50 grams
Dead/Treated At 21 Days ([1]; oral 75 mg./kg.): 2/39
% Inhibition of Control Grade (secondary lesion) ([1]; oral 150 mg./kg., Day 14): 54%
% Inhibition of Swelling (primary lesion) ([1]; oral 150 mg./kg., Day 14): 75%
Mean Weight Gain ([1]; oral 150 mg./kg., Day 14): 40 grams
% Inhibition of Control Grade (secondary lesion) ([1]; oral 150 mg./kg., Day 21): 31%
% Inhibition of Swelling (primary lesion) ([1]; oral 150 mg./kg., Day 21): 44%
Mean Weight Gain ([1]; oral 150 mg./kg., Day 21): 50 grams
Dead/Treated At 21 Days ([1]; oral 150 mg./kg.): 2/27
C/T Edema Ratio [2]: 2.3
Erythema Score (avg.) ([3]; oral 7.8 mg./kg., 1 hour): 1.1
Erythema Score (avg.) ([3]; oral 7.8 mg./kg., 4 hours): 2.9
Erythema Score (avg.) ([3]; oral 15.6 mg./kg., 1 hour): 0.4
Erythema Score (avg.) ([3]; oral 15.6 mg./kg., 4 hours): 2.3
Erythema Score (avg.) ([3]; oral 31.3 mg./kg., 1 hour): 0.4
Erythema Score (avg.) ([3]; oral 31.3 mg./kg., 4 hours): 1.7
Erythema Score (avg.) ([3]; oral 62.5 mg./kg., 1 hour): 0.3
Erythema Score (avg.) ([3]; oral 62.5 mg./kg., 4 hours): 0.9
Erythema Score (avg.) ([3]; oral 125 mg./kg., 1 hour): 0.1
Erythema Score (avg.) ([3]; oral 125 mg./kg., 4 hours): 1.1
Erythema Score (avg.) ([3]; oral 250 mg./kg., 1 hour): 0
Erythema Score (avg.) ([3]; oral 250 mg./kg., 4 hours): 0.5
